“Also recorded” adds a separate entry of the source.
Legend:
[1] = test system: KC6141 cells; test: Luminescence ATP detection assay; format: cell-based, mouse; details: KC6141 cells on ECM, 0.5 mM glucose, 24 hrs; EIPA 10.5 μM, MBQ-167 500 nM, MRT68921 600 nM
Description: (§1) Extracellular Matrix (ECM) Preparation. Skin fibroblasts were seeded on 6/12/96-well plates. One day after plating, cells were switched into DMEM (with pyruvate) with 10% dialysed FBS supplemented with or without 500 μM ^3H-proline and 100 μM Vitamin C. Cells were cultured for 6 days with media renewal every 24 h. After six days, skin fibroblasts were removed by washing in 1 ml or 500 μl or 100 μl per well PBS with 0.5% (v/v) Triton X-100 and 20 mM NH4OH. ECM was washed five times with PBS before plating KC6141 cells. The following day, KC6141 cells were switched into the indicated medium for 24 or 72 hrs.
Luminescence ATP Detection Assay. Intracellular ATP level was determined with luminescence ATP detection assay system (PerkinElmer) according to manufacturer's protocol. Briefly, KC6141 cells were grown on 96-well plates coated with or without ECM in the presence of 100 μl 0.5 mM glucose medium with or without EIPA (10.5 μM), MBQ-167 (500 nM), MRT68921 (600 nM) or their combinations for 24 hrs. 50 μl mammalian cell lysis solution was added and shaken for 5 minutes. Next, 50 μl substrate solution was added and shaken for five minutes. Finally, plate was adapted in dark for 10 minutes and luminescence was measured.

[2] = test system: KC6141 cells; test: L-Amino acid assay; format: cell-based, mouse; details: KC6141 cells on ECM, 0.5 mM glucose, 24 hrs
Description: as §1
L-Amino Acid Assay. Total amount of free L-amino acids (except for glycine) were measured by L-Amino Acid Assay Kit (Colorimetric) (antibodies) according to manufacturer's protocol. Briefly, KC6141 cells were grown on 6-well plates coated with or without ECM and treated as above. The cells were resuspended at 10^6 cells/mL 1× Assay Buffer and were homogenized on ice and then centrifuged to remove debris. 50 μL of each L-Alanine standard or cell lysis was added into wells of a 96-well microtiter plate. Then 50 μL of Reaction Mix was added to each well. The well contents were mixed thoroughly and incubated for 90 minutes at 37° C. protected from light. The plate was read with a spectrophotometric microplate reader in the 540-570 nm range. The concentration of L-Amino Acids was calculated within samples by comparing the sample OD to the standard curve.

[3] = test system: KC6141 mouse PDAC cells; test: Cell viability assay (CCK-8); format: cell-based; details: WT and IKKα KD 6141 cells on ECM, 0.5 mM glucose, 3 days; EIPA, IPI549 600 nM, MBQ-167 500 nM
Description: as §1
Cell viability assay. Cell viability was determined with Cell Counting Kit-8 assay (CCK-8 assay kit, Glpbio). Cells were plated in 96-well plates at a density of 3000 cells (MIA PaCa-2) or 1500 cells (KC6141) per well and incubated overnight prior to treatment. EIPA (10 μM), MRT68921 (600 nM) or erlotinib (2 μM, Sigma) were added to the wells for 72 and 96 hrs. Next, 10 μL of CCK-8 was added to each well. The optical density was read at 450 nm using a microplate reader (FilterMax F5, Molecular Devices, USA) at day 0, 1, 2, 3, and 4. For glutamine-deprivation assays, cells in 96-well plates were rinsed briefly in PBS and incubated in the 0.2 mM glutamine. Glutamine-free DMEM medium was supplemented with 0.2 mM glutamine in the presence of 10% dialysed FBS and 25 mM HEPES. For some conditions, the medium was supplemented with a final concentration of 2% BSA (Fraction V, fatty-acid-, nuclease and protease-free, Calbiochem). For all experiments, media were replaced every 24 hrs. Viable cell counts were obtained using CCK-8 assay described as above.
In some embodiments, cells were plated in 96-well plates coated with or without ECM at a density of 3000 cells (MIA PaCa-2, 1444, 1305, COLO 357/FG) or 1500 cells (KC6141) per well and incubated overnight prior to treatment. EIPA (10.5 μM), IPI549 (600 nM), MBQ-167 (500 nM), MRT68921 (600 nM) or erlotinib (2 μM, Sigma), ML385 (10 μM, Sigma), HCQ (10 μM or 80 μM) or their combinations were added to the wells for 24, 72 or 96 hrs. Next, 10 μL of CCK-8 was added to each well. The optical density was read at 450 nm using a microplate reader (FilterMax F5, Molecular Devices, USA) at day 0, 1, 2, 3, and 4. For glutamine-deprivation assays, cells in 96-well plates were rinsed briefly in PBS and incubated in the 0.2 mM glutamine. Glutamine-free DMEM medium was supplemented with 0.2 mM glutamine in the presence of 10% dialyzed FBS and 25 mM HEPES. For glucose-deprivation assays, cells in 96-well plates were rinsed briefly in PBS and incubated in the 0.5 mM glucose. Glucose-free DMEM medium was supplemented with 0.5 mM glucose in the presence of 10% dialyzed FBS and 25 mM HEPES. For some conditions, the medium was supplemented with a final concentration of 2% BSA (Fraction V, fatty-acid-, nuclease and protease-free, Calbiochem). For all experiments, media were replaced every 24 hrs. Viable cell counts were obtained using CCK-8 assay described as above.

[4] = test system: COLO 357/FG cells; test: LC3 puncta and p62/LC3 immunoblot; format: cell-based, human; details: IKKα^low COLO 357/FG cells, normal or starvation medium 2 hrs, +/- CQ
Description: Autophagy Induction. […] For starvation, cells were incubated in starvation medium (20 mM HEPES pH 7.4, 140 mM NaCl, 1 mM CaC2, 1 mM MgCl2, and 1% BSA) for 1.5 or 2 hrs. For glucose starvation, cells were washed three times with PBS and incubated in glucose-free DMEM containing 10% dialyzed FBS for 4 hrs.
(§2) Immunoblot and immunoprecipitation. Cells were harvested and lysed in RIPA buffer (50 mM Tris-HCl, pH 7.4, 150 mM NaCl, 1% Triton X-100, 1% Na deoxycholate, 0.1% SDS, 1 mM EDTA) supplemented with complete protease inhibitor cocktail. Proteins were resolved on SDS-polyacrylamide gels, and then transferred to a polyvinylidene difluoride membrane. After blocking with 5% (w/v) fat free milk, the membrane was stained with the corresponding primary antibodies followed by incubation with the appropriate secondary HRP-conjugated antibodies, and development with ECL. Immunoreactive bands were detected by automatic X-ray film processor or KwikQuant Imager.
Data are presented as mean±SEM.

[5] = test system: MIA PaCa-2 cells; test: Immunoblot of p62 and LC3 (autophagic degradation); format: cell-based, human; details: IKKα-deficient (KD) MIA PaCa-2 cells, normal or starvation medium 2 hrs, +/- CQ
Description: as §2, with “Autophagy Induction. […] For starvation, cells were incubated in starvation medium (20 mM HEPES pH 7.4, 140 mM NaCl, 1 mM CaC2, 1 mM MgCl2, and 1% BSA) for 1.5 or 2 hrs. For glucose starvation, cells were washed three times with PBS and incubated in glucose-free DMEM containing 10% dialyzed FBS for 4 hrs. Immunoblot” for “Immunoblot”

Compound	cellular ATP [1]	amino acid content [2]	cell viability enhanced by extracellular matrix (ECM) [3]	LC3 puncta, LC3 lipidation and p62 on starvation [4]	LC3 puncta, LC3 lipidation and p62 on starvation ([4]; listed as chloroquine)	p62 and LC3-II levels [5]
CCn1c2ccccc2c2cc(-n3nncc3-c3ccccc3)ccc21 (racemic) [MBQ-167]	reduced	reduced	suppressed			
CCN(CC)CCCC(C)Nc1ccnc2cc(Cl)ccc12 (stereo not drawn) [CQ, chloroquine]				not affected	no effect	did not increase p62 and LC3-II; also recorded: failed to increase p62 and LC3-II
